Data from US11510886B2, “Metformin amino acid compounds and methods of using the same” (Laboratorios Silancs S.A. DE C.V., priority 2016, dated 2022).
Entries after “also recorded” stand apart in the source; their conditions may differ. Where a name gives a salt, the structure may show the parent alone.

Key:
in vivo = details: female, Sprague Dawley, rat, plasma, po, 250 mg/kg
[1] = Metformin association with lysine in aqueous solution (1H NMR titration); type: physicochemical; details: 1×PBS, pH 7.5, WINEQNMR2
Method: Specifically, 500 μL of a 10 mM lysine solution in buffer […] were introduced in an NMR tube, and the pH was adjusted to 7.5; moreover, […] of deuterated methanol was added, and the NMR proton spectrum was recorded (^1H). […] Increasing amounts of the metformin dissolution were added to the amino acid dissolution, and the ^1H NMR spectrum was recorded after each addition until reaching 20 equivalents.
The alpha proton signal of lysine (triplet to 3.76 ppm, FIG. 100) first shifted to lower […] and then to higher values. […] The complexation constant was calculated to be 828±42 (FIG. 101).

[2] = tested on: AMPK and GLUT4 in NIH-3T3-L1 adipocytes; assay: AMPK activation and GLUT4 in plasma membrane of L1 adipocytes (Western blot); type: cell-based, Mice; details: 10 mM, 3 hours
Method: . 2 days in culture media supplemented with insulin 1 μg/mL; and 6 days in culture media. […]. Similar quantities of each extract were analyzed using Western blot (SDS-PAGE and electrotransfer), with the indicated antibodies and chemiluminescence (ECL Prime, GE Healthcare). FIGS. 70B-C show pictures of L1 adipocyte cultures treated as in FIG. 70A and exposed to fractioning for protein extraction from plasma membrane by a procedure described above (Nishiumi & Ashida. Biosci Biotechnol Biochem. 2007; 71:2343-6). Briefly, cells were washed with PBS and collected in solution A (Tris 50 mM, pH 8.0, DTT 0.5 mM, 0.1% Nonidet P-40, PMSF 1 mM, leupeptin 5 μg/mL, aprotinin 5 μg/mL, NaF 10 mM, Na3VO4 1 mM) and lysed manually with a Dounce homogenizer (20 pestle movements). Homogenized solutions were centrifuged (1000×g, 10 minutes, 4° C.), cell precipitates were dispersed in solution A, without Nonidet P-40, stored in ice for 10 minutes, occasionally stirred, and centrifuged again (1000×g, 10 minutes, 4° C.). […]. Supernatants were stored at −80° C. until analysis. Equivalent quantities of demembrane extracts were analyzed by Western blot with anti-GLUT4 (Abcam) antibodies. […]

GPBP = GPBP Western blot of treated A549 cells; type: cell-based; details: 10 mM, 3 hours
Method: After the incubation time, cells were washed twice with PBS and lysed in 25 mM Tris-HCl, pH 7.4, 140 mM NaCl, 3 mM KCl, 20 mM NaF, 1 mM PMSF, 10 μg/mL leupeptin, 1% Triton X-100 for 20 min at 4° C. The lysates were centrifuged at 20,000×g for 10 min at 4° C., supernatants were recovered, and protein concentration determined
Equal amounts of each lysate (40 μg) were analyzed by Western blot, with monoclonal antibodies against GPBP N27 (Fibrostatin SL) and against tubulin (Sigma). Electrophoresis was performed in polyacrylamide gel (6.5%) with SDS, after which electroblotting was carried out to PVDF membrane (Immobilon P, Millipore Merck). After transfer, the membranes were blocked in 5% skim milk in 25 mM Tris-HCl, pH 7.5, 150 mM NaCl, 0.05% Tween-20 (TBST) for 45 min, and then incubated with primary antibodies diluted in blocking solution for 16 hours at 4° C. Thereafter, the membranes were washed with TBST (3×5 minutes) and incubated with secondary antibodies against mouse IgG, conjugated to horseradish peroxidase (HRP) (Sigma) for 1 hours at room temperature while stirring. After further washes with TBST (3×5 minutes), the chemiluminescence disclosure was performed by using the ECL Prime reagent (GE Healthcare) and the image generation system ImageQuant LAS 4000 Mini (GE Healthcare).
The Western blots disclosure images were analyzed with the ImageJ WCIF program.

Row | Molecule | AUC(0-t) (in vivo) | Cmax (in vivo) | Tmax (in vivo) | concentration at 0.5 h (in vivo) | concentration at 1 h (in vivo) | concentration at 2 h (in vivo) | concentration at 4 h (in vivo) | concentration at 8 h (in vivo) | concentration at 24 h (in vivo) | complexation constant [1] | AMPK activation [2] | GLUT4 accumulation in the plasma membrane [2] | GPBP polypeptides reactive with N27 (GPBP; pH 7.5, listed as SLN10) | GPBP polypeptides reactive with N27 (GPBP; pH 9.3)
1 | CN(C)C(=N)N=C(N)N [Metformin hydrochloride, metformin hydrochloride, reference compound] | 82000 ng·h/mL | 16300 ng/mL | 30 min | 16300 ± 5100 ng/mL | 14800 ± 5070 ng/mL | 11900 ± 3240 ng/mL | 6830 ± 1650 ng/mL | 3140 ± 1050 ng/mL | 190 ± 100 ng/mL |  |  |  |  | 
2 | metformin lysinate |  |  |  |  |  |  |  |  |  | 828±42 | activates AMPK | induces a GLUT4 accumulation in the plasma membrane | more abundant in culture extracts treated with SLN10; also recorded: shifts to positions of less molecular weight | shifts to positions of less molecular weight
